# Source: ChEMBL document CHEMBL1122535, “Mesoionic pyridazine ribonucleosides. A novel biologically active nucleoside metabolite” (1984)
# Tests used:
# Escherichia coli [1] = experiment: Minimum inhibitory concentration against Escherichia coli (EC) in Davis minimal media under Anaerobic conditions(in vitro); assay type: functional
# Escherichia coli [2] = experiment: Minimum inhibitory concentration against Escherichia coli (EC) in Davis minimal media under Aerobic conditions(in vitro); assay type: functional
# Escherichia coli [3] = experiment: Minimum inhibitory concentration against Escherichia coli (EC) in Davis minimal media under aerobic conditions(in vitro); No indication of toxicity; assay type: functional, organism-based
# Escherichia coli [4] = experiment: Minimum inhibitory concentration against Escherichia coli (EC) in Davis minimal media under Anaerobic conditions(in vitro); No indication of toxicity; assay type: functional, organism-based
MIC (Escherichia coli [1]) [µg/mL],MIC (Escherichia coli [2]) [µg/mL],Structure (SMILES),MIC (Escherichia coli [3]),MIC (Escherichia coli [4])
25,25,CC(=O)OC[C@H]1O[C@@H]([n+]2ccc(Cl)c([O-])n2)[C@H](O)[C@@H]1O,–,–
100,–,COc1cc[n+]([C@@H]2O[C@H](CO)[C@@H](O)[C@H]2O)nc1[O-],–,–
–,–,NC(=O)c1cc[n+]([C@@H]2O[C@H](CO)[C@@H](O)[C@H]2O)nc1[O-],No indication of toxicity,No indication of toxicity
0.2,0.2,[O-]c1n[n+]([C@@H]2O[C@H](CO)[C@@H](O)[C@H]2O)ccc1Cl,–,–
100,–,N.[O-]c1n[n+]([C@@H]2O[C@H](CO)[C@@H](O)[C@H]2O)ccc1S,–,–
–,100,CC(=O)OC[C@H]1O[C@@H]([n+]2ccc(C#N)c([O-])n2)[C@H](O)[C@@H]1O,–,–
3.1,0.78,N#Cc1cc[n+]([C@@H]2O[C@H](CO)[C@@H](O)[C@H]2O)nc1[O-],–,–
100,–,Nc1cc[n+]([C@@H]2O[C@H](CO)[C@@H](O)[C@H]2O)nc1[O-],–,–
